Test results published in US20230027620A1, “PENTAPEPTIDE AND METHODS OF USE THEREOF” (THE BOARD OF TRUSTEES OF THE UNIVERSITY OF ILLINOIS, priority 2019, published 2023).

Tests used:
pERK1/2 = assay: Western blot for pERK1/2 after wounding; assay type: cell-based; details: wounded cells, compared with wounding alone
Experimental: Western Blot. Western blot was performed following standard methods. Protein lysate (20 μg) was boiled in NuPAGE™ LDS sample buffer (Invitrogen, Carlsbad, Calif.) for 10 minutes and then subjected to electrophoresis on 12% NuPAGE™ Bis-Tris gels (Invitrogen, Carlsbad, Calif.), followed by transfer to nitrocellulose membranes (Amersham Protran, GE Healthcare, Pittsburgh, Pa.). Membranes were then blocked with Tris-buffered saline containing 3% nonfat dry milk for 1 hour and incubated with primary antibody against pERK1/2 (Cell Signaling, Danver, Mass.) (1:1000) overnight at 4° C. After washing in 0.05% Tris-buffered saline containing 0.05% polysorbate 20, membranes were then incubated for 1 hour with goat anti-rabbit-HRP (BD Biosciences, San Jose, Calif.) (1:2000) as the secondary antibody. The membranes were developed using X-ray film and ECL Pro solution (PerkinElmer, Waltham, Mass.). Beta-actin was used as an internal control.
The level of activation/phosphorylation of ERK with and without wounding and with and without Hst5 application were investigated to determine whether the cellular signaling pathways underpinning the pro-migratory effects of Hst5 were similar to those of Hst1 in other epithelial cell types. Wounding causes an increased in phosphorylated form of ERK1/2 (p-ERK1/2). […]

[1] = system: corneal epithelial wound in C57BLl6J mice; assay: Murine corneal epithelial injury (wound healing) model; assay type: in vivo
Experimental: Wounded areas were treated with Hst5, SHRGY (SEQ ID NO:2) or SP1 peptides (n=7 for each group), each tested at 80 μM concentration. Wound areas at multiple time points were measured using Image J software. […] Statistical significance was determined by a two-way ANOVA with Bonferroni post-hoc test. **P<0.01, ***P<0.001. % Wound area=(Wound area at time X/Wound area at time 0)×100.
Wound Healing Assay. Corneal wounding experiments in mice were conducted in compliance with the Association for Research in Vision and Ophthalmology (ARVO) Statement for the Use of Animals in Ophthalmic and Vision Research. The protocol was approved by the Animal Care & Use Committee of the University of Illinois at Chicago. Twelve-to-nineteen week old C57BLl6J (Jackson Laboratory, Bar Harbor, Me.) mice were anesthetized with intraperitoneal injection of ketamine (100 mg/kg) and xylazine (5 mg/kg). After applying two drops of topical 0.5% proparacaine, a 2.0-mm area of the central epithelium was demarcated using 2-mm disposable biopsy punch and removed by an AlgerBrush II (The Alger Company, Lago Vista, Tex.). In the treatment (n=7) or the control (n=7) group, Histatin=5 (80 μM), SHRGY peptide (SEQ ID NO:2; 80 μM), or SP1 (80 μM) was applied to the cornea three times a day. At 0, 18 and 24 hours, the corneas were stained with fluorescein (FUL-GLO® Fluorescein Sodium ophthalmic strips, Akorn, Lake forest, Ill.) and photographed using a NIKON FS-2 photo-slit lamp with a NIKON D200 camera (Melville, N.Y.). Wound sizes were compared with the baseline for each mouse and the percentages of wound closure was measured using Image J software.
For immunofluorescence, excised whole mouse eye was snap frozen in optimal cutting temperature compound (OCT; (Fisher Healthcare, Galderma, Calif.). The frozen tissues were cut into 10 μm cryosections (ThermoScientific NX50 Cryomicrotome, Waltham, Mass.) and subsequently were mounted on Superfrost plus slides (Thermofisher, Waltham, Mass.). Slides were fixed for 20 minutes in methanol, washed several times with PBS, stained with DAPI for 2 minutes, and further washed with PBS and deionized water. The slides were then mounted in Fluoro gel with Tris buffer (Electron Microscopy Sciences, Hattfield, Pa.) and observed under a confocal microscope (Zeiss LSM 710 Confocal Microscope, Oberkochen, Germany) using a 10× objective.
Thus, Hst5 and SHRGY (SEQ ID NO:2)-containing peptides can enhance wound healing in a well-vetted model of murine corneal epithelial injury.

DSHAKRHHGYKRKFHEKHHSHRGY [Hst5]
pERK1/2 levels (Western blot) (pERK1/2): further increased | % remaining corneal wound area compared to baseline ([1]; 80 μM, 18 hours and 24 hours, compared to SP1, n=7): statistically significant improvement | corneal wound size, histologic analysis (DAPI cross sections) ([1]; compared to SP1-treated controls): reductions in corneal wound size | corneal wound closure rates ([1]; topical, 80 μM, three times a day, vs scrambled peptide control SP1): significant improvement in corneal wound closure rates
